pIC50: −log10 of the molar value.
Key:
Aurora kinase A = target: T1, Aurora kinase A (Homo sapiens, UniProt O14965); test: Aurora Kinase SPA Assay
T1 sequence (O14965 whole entry): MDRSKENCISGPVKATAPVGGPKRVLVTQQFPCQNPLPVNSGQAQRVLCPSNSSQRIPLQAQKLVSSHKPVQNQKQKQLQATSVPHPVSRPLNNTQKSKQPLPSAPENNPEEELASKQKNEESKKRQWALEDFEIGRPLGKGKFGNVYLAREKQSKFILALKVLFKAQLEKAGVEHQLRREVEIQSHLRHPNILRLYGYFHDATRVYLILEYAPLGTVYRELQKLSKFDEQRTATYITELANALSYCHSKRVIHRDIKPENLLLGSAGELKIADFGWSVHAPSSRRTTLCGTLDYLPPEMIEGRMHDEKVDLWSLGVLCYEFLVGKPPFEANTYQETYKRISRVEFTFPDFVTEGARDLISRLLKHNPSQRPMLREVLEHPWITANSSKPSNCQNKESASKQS
Description: The biochemical activity of compounds was determined by incubation with Aurora A and substrates in the presence ATP/[gamma-33P] ATP. After incubation, the reaction was stopped and the phosphorylated substrate was separated from nonincorporated radioactive ATP using SPA beads (Amersham Pharmacia Biotech), counted using TopCount (Packard) to measure substrate-incorporated phosphate.

[1] = target: Cyclin-dependent kinase/G2/mitotic-specific cyclin- 1 (Homo sapiens, UniProt P06493); test: Z-LYTE Enzymatic Kinase Assay
Sequence of Cyclin-dependent kinase/G2/mitotic-specific cyclin- 1 (P06493 whole entry): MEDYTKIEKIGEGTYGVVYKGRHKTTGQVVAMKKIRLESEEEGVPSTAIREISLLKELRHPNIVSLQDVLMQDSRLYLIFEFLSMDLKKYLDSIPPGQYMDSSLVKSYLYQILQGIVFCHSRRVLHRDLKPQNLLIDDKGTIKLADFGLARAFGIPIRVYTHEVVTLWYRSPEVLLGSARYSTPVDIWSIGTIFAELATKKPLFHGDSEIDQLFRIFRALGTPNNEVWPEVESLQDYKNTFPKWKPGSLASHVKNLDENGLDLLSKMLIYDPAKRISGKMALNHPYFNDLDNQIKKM
Sequence of Cyclin-dependent kinase/G2/mitotic-specific cyclin- 1 (P14635 whole entry, further chain): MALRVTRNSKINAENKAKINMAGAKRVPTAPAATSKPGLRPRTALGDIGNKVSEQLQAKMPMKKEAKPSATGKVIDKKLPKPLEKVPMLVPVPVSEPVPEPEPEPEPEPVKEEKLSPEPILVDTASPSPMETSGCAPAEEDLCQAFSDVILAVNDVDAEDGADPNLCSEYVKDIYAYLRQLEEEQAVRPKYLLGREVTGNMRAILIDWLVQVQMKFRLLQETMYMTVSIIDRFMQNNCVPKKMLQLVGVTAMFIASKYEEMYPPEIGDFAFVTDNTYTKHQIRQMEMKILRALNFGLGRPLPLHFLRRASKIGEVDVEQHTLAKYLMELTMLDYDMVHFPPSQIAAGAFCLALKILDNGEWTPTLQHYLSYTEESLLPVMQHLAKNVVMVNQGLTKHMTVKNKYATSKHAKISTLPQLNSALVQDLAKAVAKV
Description: Enzyme activity was assayed using Z-LYTE Enzymatic Kinase Assay format (Invitrogen Corp., Carlsbad, CA) in the SelectScreen Kinase Profiling Service (Invitrogen Discovery Sciences, Madison, WI).

Structure (SMILES)	pIC50 (Aurora kinase A; pH 7, 22 °C)	pIC50 [1]	pIC50 (Aurora kinase A)
O=C(O)c1ccc(Nc2ncc(Br)s2)cc1 [4-[(5-bromo-1,3-thiazol-2-yl)amino]benzoic acid]	7.10	< 5.00	
CNC(=O)c1ccc(Nc2ncc(Br)s2)cc1 [4-[(5-bromo-1,3-thiazol-2-yl)amino]-N-methylbenzamide]		5.37	
Fc1ccc(Nc2ncc(Br)s2)c(F)c1 [5-bromo-N-(2,4-difluorophenyl)-1,3-thiazol-2-amine]			< 5.00
Fc1ccc(Nc2ncc(Br)s2)cc1 [5-bromo-N-(4-fluorophenyl)-1,3-thiazol-2-amine]	6.40	< 5.00	
O=C(NCCN1CCOCC1)c1ccc(Nc2ncc(Br)s2)cc1 [4-[(5-bromo-1,3-thiazol-2-yl)amino]-N-[2-(morpholin-4-yl)ethyl]benzamide]			5.64
Brc1cnc(NCCc2ccccc2)s1 [5-bromo-N-(2-phenylethyl)-1,3-thiazol-2-amine]			< 5.00

Reference: BindingDB's records for doi:10.1021/cb700200w (Novartis, 2008)
